Test results: patent publication US20250034186A1, “ANTIVIRAL COMPOUNDS” (priority 2020, published 2025)

Experiments:
Assay type in all cases: cell-based
[1] = tested on: HCV replicon 1B; experiment: HCV Rep 1B EC50; settings: for EC50: Hepatitis C virus, 72 h, HCV replicon cells, 3 days
Experimental: Compounds were serially diluted in ten steps of 1:3 dilutions in 384-well plates. All serial dilutions were performed in four replicates per compound within the same 384-well plate. […] To each well of a black polystyrene 384-well plate (Greiner Bio-one, Monroe, NC), 90 μL of cell culture medium (without Geneticin) containing 2000 suspended HCV replicon cells was added with a Biotek μFlow workstation. For compound transfer into cell culture plates, 0.4 μL of compound solution from the compound serial dilution plate was transferred to the cell culture plate on a Biomek FX workstation. The DMSO concentration in the final assay wells was 0.44%. The plates were incubated for 3 days at 37° C. with 5% CO2 and 85% humidity. The HCV replicon assay was a multiplex assay, able to assess both cytotoxicity and antireplicon activity from the same well. The CC50 assay was performed first. The media in the 384-well cell culture plate was aspirated, and the wells were washed four times with 100 μL of PBS each, using a Biotek ELX405 plate washer. A volume of 50 μL of a solution containing 400 nM calcein AM (Anaspec, Fremont, CA) in 1×PBS was added to each well of the plate with a Biotek μFlow workstation. The plate was incubated for 30 min at room temperature before the fluorescence signal (excitation 490 nm, emission 520 nm) was measured with a Perkin-Elmer Envision plate reader. The EC50 assay was performed in the same wells as the CC50 assay. The calcein-PBS solution in the 384-well cell culture plate was aspirated with a Biotek ELX405 plate washer. A volume of 20 μL of Dual-Glo luciferase buffer (Promega, Madison, WI) was added to each well of the plate with a Biotek μFlow Workstation. The plate was incubated for 10 min at room temperature. […] The plate was then incubated at room temperature for 10 min before the luminescence signal was measured with a Perkin-Elmer Envision Plate Reader.

[2] = in vitro; settings: human, read-out: CC50 GALPC3
Experimental: Compounds were tested in a high-throughput 384-well assay format for cytotoxicity in galactose-adapted PC3 cells (human prostate cancer cell line). Cells were diluted in media (DMEM (11966), 10% FBS, 1% NEAA, 0.2% Galactose, 1% Pyruvate, 1% Glutamax, 1% PSG) to 16.6K cells/mL and plated at 90 uL/well into 384 well poly-D-lysine coated assay plates and placed in an incubator at 37° C. and 5% CO2. Compounds were serially diluted (1:3) in 100% DMSO in 384-well plates in quadruplicate. DMSO and 2 mM Puromycin were included as negative and positive controls respectively. 24 hours after cell plating, a 384 channel pipettor was used to transfer 0.4 uL from the compound plate to the assay plate. Assay plates are returned to the incubator. After 5 days, assay plates are washed with 80 uL/well of PBS before addition of 20 μL of Cell Titer Glo. Assay plates are read on the Envision plate reader. […] CC50 values were calculated in Accord (on-line tool) using a one-site dose-response model to generate sigmoidal curve fits.

[3] = PHH cytotoxicity assay; settings: human, fresh primary hepatocytes (PHH), daily replacement
Experimental: Three-fold serial dilutions of the compound of Formula I and compounds 1, 2 and 6 were prepared in duplicate in 96-well plates starting at a concentration of 50 or 100 μM. Fresh human hepatocytes were ordered in a 96-well plate format from BioIVT (Baltimore, Maryland, Cat #F/M91565) with a Matrigel overlay or Invitrogen (Durham, North Carolina, Cat #HMFY96) with a Geltrex overlay. Donor profiles were limited to 4-65-year old with minimal alcohol consumption. PHH cells were allowed to recover 4-24 hours in complete medium with added supplement supplied by the vendor at 37° C. in a 5% CO2 incubator with 90% humidity before treated with compounds. Serial-diluted compounds and complete medium were replaced (130 μL/well) daily for 5 days, with final amount of DMSO equal to 0.5%. On Day 5, medium was removed from the assay plates and cell viability was determined by the addition of 100 μL Cell-Titer Glo viability reagents (Promega, Madison, WI, Cat #G7573) added to each well. Following 5-10 minutes incubation at room temperature, luminescence signal was quantified on a Victor Luminescence plate reader (Perkin-Elmer, Waltham, MA).

| Compound | EC50 [1] [µM] | CC50 at 5 days [2] [µM] | CC50 at 5 days [3] [µM] | times more potent relative to compound 2, HCV Rep 1B ([1]; EC50 ratio vs compound 2) |
| --- | --- | --- | --- | --- |
| CCC(CC)COC(=O)[C@H](C)NP(=O)(OC[C@@]1(C#N)O[C@@H](c2ccc3c(N)ncnn23)[C@H](O)[C@@H]1O)Oc1ccccc1 (stereo partly shown) [Compound 2, reference compound] | 2.78 | – | – | – |
| CCC(CC)COC(=O)[C@H](C)N[P@](=O)(OC[C@@]1(C#N)O[C@@H](c2ccc3c(N)ncnn23)[C@H](O)[C@@H]1O)Oc1ccccc1 [Compound 6, 2-ethylbutyl ((S)-(((2R,3S,4R,5S)-5-(4-aminopyrrolo[2,1-f][1,2,4]triazin-7-yl)-2-cyano-3,4-dihydroxytetrahydrofuran-2-yl)methoxy)(phenoxy)phosphoryl)alaninate] | – | > 83.5 | 14.1 | – |
| C[C@H](N[P@](=O)(OC[C@@]1(C#N)O[C@@H](c2ccc3c(N)ncnn23)[C@H](O)[C@@H]1O)Oc1ccccc1)C(=O)OC1CCCCC1 [Formula I, cyclohexyl ((S)-(((2R,3S,4R,5S)-5-(4-aminopyrrolo[2,1-f][1,2,4]triazin-7-yl)-2-cyano-3,4-dihydroxytetrahydrofuran-2-yl)methoxy)(phenoxy)phosphoryl)-L-alaninate] | 0.793 | > 44.4 | 21.2 | about 3.5 times |
